Data taken from US20210009542A1 (Calico Life Sciences LLC, priority 2018, published 2021).
Like-named read-outs stand apart in the source and are kept apart here.

Key:
[1] = molecular target: T1, His tagged full-length PTP1B protein (Homo sapiens, UniProt P18031); experiment: Mobility shift assay (MSA) for potency of PTP1B inhibitors; type: biochemical
T1 construct: made in house
T1 sequence (P18031 with tags, fused parts or gaps): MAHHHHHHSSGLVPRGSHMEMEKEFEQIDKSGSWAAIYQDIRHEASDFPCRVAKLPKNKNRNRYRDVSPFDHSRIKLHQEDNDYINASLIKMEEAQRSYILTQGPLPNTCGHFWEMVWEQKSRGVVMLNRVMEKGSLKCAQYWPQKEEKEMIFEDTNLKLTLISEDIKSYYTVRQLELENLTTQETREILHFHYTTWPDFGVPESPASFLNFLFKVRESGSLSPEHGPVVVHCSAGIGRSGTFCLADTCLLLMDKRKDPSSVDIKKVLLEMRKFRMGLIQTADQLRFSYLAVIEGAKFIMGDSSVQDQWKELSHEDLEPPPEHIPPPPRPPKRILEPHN
Experimental: The enzymatic assay used to determine activity is a mobility shift assay using a LabChip EZ Reader by Caliper Life Sciences. The enzymatic reaction was carried out in assay buffer (50 mM HEPES pH 7.5, 1 mM EGTA, 10 mM EDTA, 0.01% Tween® 20, and 2 mM DTT). […] The enzyme (at 0.5 nM) was incubated with compound for 10 minutes at room temperature. […] The % inhibition was then used to calculate the IC50 values.

[2] = molecular target: T2, His tagged PTPN2 (TC45) protein (Homo sapiens, UniProt P17706); experiment: Mobility shift assay (MSA) for potency of PTPN2 inhibitors; type: biochemical; conditions: read-out: PTPN2 MSA IC50
T2 construct: made in house
T2 sequence (P17706 with tags, fused parts or gaps isoform P17706-2): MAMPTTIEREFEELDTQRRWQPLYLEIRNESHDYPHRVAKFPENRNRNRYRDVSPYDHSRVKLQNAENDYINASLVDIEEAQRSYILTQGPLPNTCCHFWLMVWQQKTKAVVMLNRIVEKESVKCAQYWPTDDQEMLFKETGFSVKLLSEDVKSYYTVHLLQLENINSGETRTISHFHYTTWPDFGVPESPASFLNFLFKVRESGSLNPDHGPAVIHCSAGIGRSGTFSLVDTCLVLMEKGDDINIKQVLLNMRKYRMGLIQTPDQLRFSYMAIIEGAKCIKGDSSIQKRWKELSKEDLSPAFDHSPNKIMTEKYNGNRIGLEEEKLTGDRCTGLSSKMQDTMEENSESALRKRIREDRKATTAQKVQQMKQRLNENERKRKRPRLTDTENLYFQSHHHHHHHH
Method in brief: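 IC50 values were derived from % inhibition of substrate conversion, measured by microfluidic mobility shift (ex 488/em 530) after quenching. The fluorescent phosphotyrosine insulin-receptor peptide ([…]) reacted for 10 min at room temperature with 0.5 nM His-tagged TC45 PTPN2 that had been preincubated 10 min with compound (12 points, 1:3). Buffer was HEPES pH 7.5 with EGTA, EDTA, Tween 20 and DTT.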

[3] = system: B16F10 mouse melanoma cells; experiment: B16F10 IFNγ-induced cellular growth inhibition assay; type: cell-based; conditions: Mus musculus, B16-F10, 33 μM compound
Method in brief: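 Live-cell imaging of confluence every 6 h over 5 days at 37 °C tracked growth of mouse B16F10 melanoma cells seeded overnight at 500/well. Semi-log compound series (final 100–0.001 μM, 0.1% DMSO) ran in both arms, ±IFNγ at 0.5 ng/mL final; inhibition taken relative to DMSO plus IFNγ when IFNγ-free DMSO wells passed 95% confluence.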

[4] = +0.5 ng/mL IFNγ, relative to DMSO control, read-out: % B16F10 growth inhibition (+0.5 ng/mL IFNγ) @ 33 μM
[5] = no IFNγ, read-out: % B16F10 growth inhibition (no IFNγ) @ 33 μM

Row | Structure (SMILES) | IC50 [1] | IC50 [2] | inhibition at 33 µM [3, 4] | inhibition at 33 µM [3, 5]
1 | CN(C)CCNc1ccc2cc(O)c(N3CC(=O)NS3(=O)=O)c(F)c2c1 [Compound 122, 5-(7-{[2-(dimethylamino)ethyl]amino}-1-fluoro-3-hydroxynaphthalen-2-yl)-1λ^6,2,5-thiadiazolidine-1,1,3-trione] | 10 to 100 nM | 10 to 100 nM | 60 to 90% | < 25%
2 | O=C1CN(c2c(O)cc3ccc(C4CCCOC4)cc3c2F)S(=O)(=O)N1 (centres unmarked) [Compound 249, 5-[1-fluoro-3-hydroxy-7-(oxan-3-yl)naphthalen-2-yl]-1λ^6,2,5-thiadiazolidine-1,1,3-trione] | > 100 nM | 1 to 10 nM | 60 to 90% | < 25%
3 | O=C1CN(c2c(O)cc3ccc(OCCC4CCNCC4)cc3c2F)S(=O)(=O)N1 [Compound 108, 5-{1-fluoro-3-hydroxy-7-[2-(piperidin-4-yl)ethoxy]naphthalen-2-yl}-1λ^6,2,5-thiadiazolidine-1,1,3-trione] | 1 to 10 nM | 1 to 10 nM | 25 to 59% | < 25%
4 | CS(=O)(=O)N1CCC(Nc2ccc3cc(O)c(N4CC(=O)NS4(=O)=O)c(F)c3c2)C1 (centres unmarked) [Compound 126, 5-(1-fluoro-3-hydroxy-7-{[1-(methanesulfonyl)pyrrolidin-3-yl]amino}naphthalen-2-yl)-1λ^6,2,5-thiadiazolidine-1,1,3-trione] | 1 to 10 nM | 1 to 10 nM | 60 to 90% | < 25%
5 | CC(C)CC(=O)Nc1ccc2cc(O)c(N3CC(=O)NS3(=O)=O)c(F)c2c1 [Compound 157, N-[8-fluoro-6-hydroxy-7-(1,1,4-trioxo-1λ^6,2,5-thiadiazolidin-2-yl)naphthalen-2-yl]-3-methylbutanamide] | 10 to 100 nM | 1 to 10 nM | 60 to 90% | < 25%
6 | CC(C)N1CCC(F)(COc2ccc3cc(O)c(N4CC(=O)NS4(=O)=O)c(F)c3c2)C1 (centres unmarked) [Compound 109, 5-(1-fluoro-7-{[3-fluoro-1-(propan-2-yl)pyrrolidin-3-yl]methoxy}-3-hydroxynaphthalen-2-yl)-1λ^6,2,5-thiadiazolidine-1,1,3-trione] | 10 to 100 nM | 1 to 10 nM | < 25% | < 25%
7 | O=C1CN(c2c(O)cc3ccc(OCC4CC4(F)F)cc3c2F)S(=O)(=O)N1 (centres unmarked) [Compound 210, 5-{7-[(2,2-difluorocyclopropyl)methoxy]-1-fluoro-3-hydroxynaphthalen-2-yl}-1λ^6,2,5-thiadiazolidine-1,1,3-trione] | 1 to 10 nM | < 1 nM | > 90% | < 25%

Second part, led by results:

Row | IC50 [1] | Structure (SMILES) | IC50 [2] | inhibition at 33 µM [3, 4] | inhibition at 33 µM [3, 5]
8 | 1 to 10 nM | O=C1CN(c2c(O)cc3ccc(CC4CCN(S(=O)(=O)C5CC5)C4)cc3c2F)S(=O)(=O)N1 (centres unmarked) [Compound 261, 5-(7-{[1-(cyclopropanesulfonyl)pyrrolidin-3-yl]methyl}-1-fluoro-3-hydroxynaphthalen-2-yl)-1λ^6,2,5-thiadiazolidine-1,1,3-trione] | 1 to 10 nM | 25 to 59% | < 25%
9 | < 1 nM | O=C1CN(c2c(O)cc3ccc(OCCNS(=O)(=O)C4COC4)cc3c2F)S(=O)(=O)N1 [Compound 298, N-(2-{[8-fluoro-6-hydroxy-7-(1,1,4-trioxo-1λ^6,2,5-thiadiazolidin-2-yl)naphthalen-2-yl]oxy}ethyl)oxetane-3-sulfonamide] | < 1 nM | > 90% | < 25%
10 | 1 to 10 nM | O=C1CN(c2c(O)cc3ccc(CC4CCCN(S(=O)(=O)C5CC5)C4)cc3c2F)S(=O)(=O)N1 (centres unmarked) [Compound 259, 5-(7-{[1-(cyclopropanesulfonyl)piperidin-3-yl]methyl}-1-fluoro-3-hydroxynaphthalen-2-yl)-1λ^6,2,5-thiadiazolidine-1,1,3-trione] | 1 to 10 nM | < 25% | < 25%
11 | > 100 nM | O=C1CN(c2c(O)cc3ccc(OCC4CCCO4)cc3c2F)S(=O)(=O)N1 (centres unmarked) [Compound 254, 5-{1-fluoro-3-hydroxy-7-[(oxolan-2-yl)methoxy]naphthalen-2-yl}-1λ^6,2,5-thiadiazolidine-1,1,3-trione] | 1 to 10 nM | 60 to 90% | < 25%
12 | 1 to 10 nM | CS(=O)(=O)N1CCC(F)(COc2ccc3cc(O)c(N4CC(=O)NS4(=O)=O)c(F)c3c2)C1 (centres unmarked) [Compound 307, 5-(1-fluoro-7-{[3-fluoro-1-(methanesulfonyl)pyrrolidin-3-yl]methoxy}-3-hydroxynaphthalen-2-yl)-1λ^6,2,5-thiadiazolidine-1,1,3-trione] | 1 to 10 nM | 25 to 59% | < 25%
13 | > 100 nM | O=C1CN(c2c(O)cc3ccc(C4=CCOC4)cc3c2F)S(=O)(=O)N1 [Compound 263, 5-[7-(2,5-dihydrofuran-3-yl)-1-fluoro-3-hydroxynaphthalen-2-yl]-1λ^6,2,5-thiadiazolidine-1,1,3-trione] | < 1 nM | 60 to 90% | < 25%
14 | 10 to 100 nM | O=C1CN(c2c(O)cc3ccc(NC4CCN(S(=O)(=O)C5CC5)C4)cc3c2F)S(=O)(=O)N1 (centres unmarked) [Compound 306, 5-(7-{[1-(cyclopropanesulfonyl)pyrrolidin-3-yl]amino}-1-fluoro-3-hydroxynaphthalen-2-yl)-1λ^6,2,5-thiadiazolidine-1,1,3-trione] | 1 to 10 nM | 60 to 90% | < 25%
